{
  "source": "patent US5610151A",
  "about": "“Monomeric bile acid derivatives, processes for their preparation and the use of these compounds as medicaments” (Hoechst Aktiengesellschaft, priority 1993, dated 1997)",
  "data": [
    {"molecular_target": "T1, Na+-dependent bile acid transportation system (Oryctolagus cuniculus, UniProt Q28727)", "T1 construct": "Brush border membrane vesicles were prepared from the intestinal cells of the small intestine; from tissue; host or cells: terminal 7/10 of the small intestine (ileum) of male New Zealand rabbits, mucosal brush border membrane vesicles", "T1 sequence (Q28727 1-347)": "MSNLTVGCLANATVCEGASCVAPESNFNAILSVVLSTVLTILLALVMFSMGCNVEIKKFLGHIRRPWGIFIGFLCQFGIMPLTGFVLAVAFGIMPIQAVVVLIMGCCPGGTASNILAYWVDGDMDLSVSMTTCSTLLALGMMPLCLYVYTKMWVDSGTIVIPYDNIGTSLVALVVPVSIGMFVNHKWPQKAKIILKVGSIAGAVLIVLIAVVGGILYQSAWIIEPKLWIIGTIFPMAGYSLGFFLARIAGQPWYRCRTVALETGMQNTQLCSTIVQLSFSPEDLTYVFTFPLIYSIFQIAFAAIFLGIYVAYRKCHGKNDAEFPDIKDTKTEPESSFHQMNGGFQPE", "assay": "Inhibition of [3H]-taurocholate uptake in brush border membrane vesicles from the ileum of rabbits", "format": "biochemical", "details": "Na+-dependent [3H]-taurocholate uptake (difference Na-T-P minus K-T-P), 50 μM taurocholate, rabbit ileum brush border membrane vesicles; drawing 7", "method": "The compounds according to the invention were tested biologically by determination of the inhibition of [^3 H]taurocholate uptake in the brush border membrane vesicles from the ileum of rabbits. The inhibition test was carried out as follows:\n1. Preparation of brush border membrane vesicles from the ileum of rabbits\nBrush border membrane vesicles were prepared from the intestinal cells of the small intestine by the so-called Mg^2+ precipitation method. Male New Zealand rabbits (2 to 2.5 kg body weight) were sacrificed by intravenous injection of 0.5 ml of an aqueous solution of 2.5 mg of tetracaine HCl, 100 T 61^R and 25 mg of mebezonium iodide. The small intestine was removed and rinsed with ice-cold physiological saline solution. The terminal 7/10 of the small intestine (measured in the oral-rectal direction, i.e. the terminal ileum, which contains the active Na^+ -dependent bile acid transportation system) was used for preparation of the brush border membrane vesicle. The intestines were frozen in plastic bags under nitrogen at -80° C. For preparation of the membrane vesicles, the frozen intestines were thawed at 30° C. in a water bath. The mucosa was scraped off and suspended in 60 ml of ice-cold 12 mM Tris/HCl buffer (pH 7.1)/300 mM mannitol, 5 mM EGTA/10 mg/1 of phenylmethylsulfonyl fluoride/1 mg/1 of trypsin inhibitor from soybeans (32 U/mg)/0.5 mg/1 of trypsin inhibitor from bovine lung (193 U/mg)/5 mg/1 of bacitracin. After dilution to 300 ml with ice-cold distilled water, the mixture was homogenized with an Ultraturrax (18-rod, IKA Werk Staufen, FRG) for 3 minutes at 75% of the maximum output, while cooling with ice. After addition of 3 ml of 1M MgCl2 solution (final concentration 10 mM), the mixture was left to stand at 0° C. for exactly 1 minute. The cell membranes aggregate by addition of Mg^2+ and precipitate, with the exception of the brush border membranes. After centrifugation at 3000× g (5000 rpm, SS-34 rotor) for 15 minutes, the precipitate was discarded, and the supernatant, which contained the brush border membranes, was centrifuged at […] (15000 rpm, SS-34 rotor) for 30 minutes. The supernatant was discarded and the precipitate was rehomogenized in 60 ml of 12 mM Tris/HCl buffer (pH 7.1)/60 mM mannitol, 5 mM EGTA using a Potter Elvejhem homogenizer (Braun, Melsungen, 900 rpm, 10 strokes). After addition of 0.1 ml of 1 M MgCl2 solution and an incubation time of 15 minutes at 0° C., the mixture was centrifuged again at 3000× g for 15 minutes. The supernatant was then centrifuged again at 46000× g (15000 rpm, SS-34 rotor) for 30 minutes. The precipitate was taken up in 30 ml of 10 mM Tris/Hepes buffer (pH 7.4)/300 mM mannitol and resuspended homogeneously by 20 strokes in a Potter Elvejhem homogenizer at 1000 rpm. After centrifugation at 48000× g (20000 rpm, SS-34 rotor) for 30 minutes, the precipitate was taken up in 0.5 to 2 ml of Tris/Hepes buffer (pH 7.4)/280 mM mannitol (final concentration 20 mg/ml) and resuspended with the aid of a tuberculin syringe with a 27 gauge needle. The vesicles were either used immediately for transportation studies after preparation, or stored at -196° C. in portions of 4 mg in liquid nitrogen.\n2. Inhibition of Na^+ -dependent [^3 H]-taurocholate uptake in the brush border membrane vesicles of the ileum\nThe uptake of substrates into the brush border membrane vesicles described above was determined by means of the so-called membrane filtration technique. 10 μl of the vesicle suspension (100 μg of protein) were pipetted as drops onto the wall of a polystyrene incubation tube (11×70 mm) which contained the incubation medium with the corresponding ligands (90 μl). […]", "values": [
      {"smiles": "C[C@H](CCC(=O)O)[C@H]1CC[C@H]2[C@@H]3[C@H](O)C[C@@H]4C[C@@H](OCCCCCCCCO)CC[C@]4(C)[C@H]3C[C@H](O)[C@]12C", "note": "[Example 3]", "quotient of the IC50Na value of taurochenodesoxycholate (TCDC) standard and the particular substance": 0.35},
      {"smiles": "C[C@H](CCC(=O)O)[C@H]1CC[C@H]2[C@@H]3[C@H](O)C[C@@H]4C[C@@H](OCCCCCCCCCO)CC[C@]4(C)[C@H]3C[C@H](O)[C@]12C", "note": "[Example 4]", "quotient of the IC50Na value of taurochenodesoxycholate (TCDC) standard and the particular substance": 0.69},
      {"smiles": "C[C@H](CCC(=O)O)[C@H]1CC[C@H]2[C@@H]3[C@H](O)C[C@@H]4C[C@@H](OCCCCCCOP(=O)(Oc5ccccc5)Oc5ccccc5)CC[C@]4(C)[C@H]3C[C@H](O)[C@]12C", "note": "[Example 18]", "quotient of the IC50Na value of taurochenodesoxycholate (TCDC) standard and the particular substance": 0.42},
      {"smiles": "C[C@H](CCC(=O)O)[C@H]1CC[C@H]2[C@@H]3[C@H](O)C[C@@H]4C[C@@H](OCCCCCCNC(N)=O)CC[C@]4(C)[C@H]3C[C@H](O)[C@]12C", "note": "[Example 21]", "quotient of the IC50Na value of taurochenodesoxycholate (TCDC) standard and the particular substance": 0.33},
      {"smiles": "C[C@H](CCC(=O)O)[C@H]1CC[C@H]2[C@@H]3[C@H](O)C[C@@H]4C[C@H](CCNC(=O)c5cccc6ccccc56)CC[C@]4(C)[C@H]3C[C@H](O)[C@]12C", "note": "[Example 33]", "quotient of the IC50Na value of taurochenodesoxycholate (TCDC) standard and the particular substance": 0.35},
      {"smiles": "Cc1ccc(S(=O)(=O)NCCCCCCO[C@H]2CC[C@@]3(C)[C@@H](C2)C[C@@H](O)[C@@H]2[C@@H]3C[C@H](O)[C@]3(C)[C@@H]([C@H](C)CCC(=O)O)CC[C@@H]23)cc1", "note": "[Example 35]", "quotient of the IC50Na value of taurochenodesoxycholate (TCDC) standard and the particular substance": 1.02},
      {"smiles": "Cc1ccc(S(=O)(=O)N(C)CCCCCCO[C@H]2CC[C@@]3(C)[C@@H](C2)C[C@@H](O)[C@@H]2[C@@H]3C[C@H](O)[C@]3(C)[C@@H]([C@H](C)CCC(=O)O)CC[C@@H]23)cc1", "note": "[Example 36]", "quotient of the IC50Na value of taurochenodesoxycholate (TCDC) standard and the particular substance": 0.20},
      {"smiles": "C[C@H](CCC(=O)O)[C@H]1CC[C@H]2[C@@H]3[C@H](O)C[C@@H]4C[C@@H](OCCCCCCNC(=O)c5cccc6ccccc56)CC[C@]4(C)[C@H]3C[C@H](O)[C@]12C", "note": "[Example 38]", "quotient of the IC50Na value of taurochenodesoxycholate (TCDC) standard and the particular substance": 0.41},
      {"smiles": "COc1ccc(Cl)cc1C(=O)NCCc1ccc(S(=O)(=O)NC(=O)NCCCCCCO[C@H]2CC[C@@]3(C)[C@@H](C2)C[C@@H](O)[C@@H]2[C@@H]3C[C@H](O)[C@]3(C)[C@@H]([C@H](C)CCC(=O)O)CC[C@@H]23)cc1", "note": "[Example 40]", "quotient of the IC50Na value of taurochenodesoxycholate (TCDC) standard and the particular substance": 0.50},
      {"smiles": "C[C@H](CCC(=O)O)[C@H]1CC[C@H]2[C@@H]3[C@H](O)C[C@@H]4C[C@@H](OCCCCCCNC(=O)[C@H](O)[C@@H](O)[C@H](O)[C@H](O)CO)CC[C@]4(C)[C@H]3C[C@H](O)[C@]12C", "note": "[Example 43]", "quotient of the IC50Na value of taurochenodesoxycholate (TCDC) standard and the particular substance": 0.73}
    ]}
  ]
}
